Legend:
[1] = tested on: human or mouse tumor cells; details: Patent Document 1, Non-Patent Documents 1 and 2; cited from earlier work
[2] = Patent Document 1, Non-Patent Documents 1 and 2; cited from earlier work
[3] = Stability test: change of crystal form by powder X-ray diffraction after storage; assay type: physicochemical; details: 30 days
From the text: (§1) The powder X-ray diffraction data were obtained by irradiating the crystal with CuKα ray (1.541 Å) using an X-ray diffraction apparatus (trade name: PW3050, manufactured by Koninklijke Philips Electronics N.V.), and detecting the angles using a vertical goniometer. The type I and type II crystal powders were respectively spread uniformly on a glass petri dish, and an aluminum foil (or a transparent resin film, for the purpose of storage under light exposure conditions) which was appropriately perforated as vent holes therein was used as a lid, to prepare test samples. These samples were respectively stored for 30 days under four kinds of conditions such as [60° C.], [40° C./relative humidity (RH) 75%], [25° C./relative humidity (RH) 60%, light exposure 2000 lx·hr], and [25° C./relative humidity (RH) 60%, light shading], and then the samples were tested using high performance liquid chromatography (HPLC) and powder X-ray diffraction (XRD). For powder X-ray diffraction (XRD), the analysis was carried out as described above.

[4] = Stability test: content of total analogues by HPLC after storage; assay type: physicochemical; details: for Total analogues (%), amount of increase from the initial value: 30 days vs initial; for Total analogues (%), 10 days: storage 10 days; for Total analogues (%), 18 days: storage 18 days; for Total analogues (%), 30 days: storage 30 days; for Increase in the total analogues: stability test under various conditions (humidification and exposure), 30 days
Method: as §1, with “The” for “The powder X-ray diffraction data were obtained by irradiating the crystal with CuKα ray (1.541 Å) using an X-ray diffraction apparatus (trade name: PW3050, manufactured by Koninklijke Philips Electronics N.V.), and detecting the angles using a vertical goniometer. The”, “(XRD).” for “(XRD). For powder X-ray diffraction (XRD), the analysis was carried out as described above.”
For the HPLC analysis, 22.9 mg of the sample was dissolved in 10 mL of 0.01 mol/L hydrochloric acid, and then the content of analogues in the crystal was measured under the following conditions.
Column: Synergi Hydro-RP 80A Phenomenex (φ4.6 mm×25 cm, 4 μm); temperature 25° C.
Mobile phase: 2.05 g of potassium dihydrogen phosphate is dissolved in 3000 mL of water, and phosphoric acid is added to the solution to adjust the pH to 3.0. The mobile phase is prepared by adding 60 mL of methanol to 2940 mL of the solution liquid.
Flow rate: Approximately 1.0 mL/min
Detector: Ultraviolet absorptiometer (measurement wavelength 254 nm)
Standard Sample: • 1-(2′-cyano-2′-deoxy-β-D-arabinofuranosyl)cytosine monohydrochloride
The term “total analogues” refers to the substances detected other than 1-(2′-cyano-2′-deoxy-β-D-arabinofuranosyl)cytosine monohydrochloride), and the term “total analogues (%)” refers to the content ratio of total analogues with respect to the standard sample.

[5] = Heating of the crystal at 80° C. for 2 hours, crystal form by melting point and powder X-ray diffraction; assay type: physicochemical; details: heated at 80° C. for 2 hours
[6] = 40° C./75% RH, listed as I, monohydrochloride
[7] = 25° C./60% RH/2000 lx, listed as I, monohydrochloride
[8] = 25° C./60% RH/Light shading, listed as I, monohydrochloride
[9] = 60° C., listed as I, monohydrochloride
[10] = 40° C./75% RH, listed as II, monohydrochloride
[11] = 25° C./60% RH/2000 lx, listed as II, monohydrochloride
[12] = 25° C./60% RH/Light shading, listed as II, monohydrochloride
[13] = 60° C., listed as II, monohydrochloride

Cl.N#CC1C(O)[C@@H](CO)O[C@H]1n1ccc(N)nc1=O (stereo partly drawn) [compound (1), 1-(2′-cyano-2′-deoxy-β-D-arabinofuranosyl)cytosine monohydrochloride]
In vitro suppressive effect for proliferation of tumor cells [1]: suppressive effect for proliferation
Anti-tumor activity in vivo [2]: excellent anti-tumor activity

Cl.N#C[C@H]1[C@H](O)[C@@H](CO)O[C@H]1n1ccc(N)nc1=O [type I crystal, 1-(2′-cyano-2′-deoxy-β-D-arabinofuranosyl)cytosine monohydrochloride]
Change of crystal form from the initial value ([3]; 25° C./60% RH/2000 lx): No change
Change of crystal form from the initial value ([3]; 25° C./60% RH/Light shading): No change
Change of crystal form from the initial value [3, 6]: No change
Change of crystal form from the initial value ([3]; 60° C.): No change
Total analogues (%), amount of increase from the initial value [4, 7]: 0.06%
Total analogues (%), initial [4, 7]: 0.07%
Total analogues (%), 10 days [4, 7]: 0.09%
Total analogues (%), 18 days [4, 7]: 0.09%
Total analogues (%), 30 days [4, 7]: 0.13%
Total analogues (%), amount of increase from the initial value [4, 8]: 0.00%
Total analogues (%), initial [4, 8]: 0.07%
Total analogues (%), 10 days [4, 8]: 0.07%
Total analogues (%), 18 days [4, 8]: 0.06%
Total analogues (%), 30 days [4, 8]: 0.07%
Total analogues (%), amount of increase from the initial value [4, 6]: −0.02%
Total analogues (%), initial [4, 6]: 0.07%
Total analogues (%), 10 days [4, 6]: 0.07%
Total analogues (%), 18 days [4, 6]: 0.06%
Total analogues (%), 30 days [4, 6]: 0.05%
Total analogues (%), amount of increase from the initial value [4, 9]: 0.00%
Total analogues (%), initial [4, 9]: 0.07%
Total analogues (%), 10 days ([4]; 60° C.): 0.06%
Total analogues (%), 18 days ([4]; 60° C.): 0.07%
Total analogues (%), 30 days ([4]; 60° C.): 0.07%
Stability of the crystal form (overall conclusion) ([4]; conclusion from the stability test and crystal form conversions): superior stability as compared with the type II crystal or the type III crystal
Increase in the total analogues [4]: not recognized

Cl.N#CC1C(O)[C@@H](CO)O[C@H]1n1ccc(N)nc1=O (stereo partly drawn) [type II crystal, 1-(2′-cyano-2′-deoxy-β-D-arabinofuranosyl)cytosine monohydrochloride]
Change of crystal form from the initial value ([3]; 25° C./60% RH/2000 lx): No change
Change of crystal form from the initial value [3, 10]: Changed (II → I)
Change of crystal form from the initial value ([3]; 40° C./75% RH, monohydrochloride): converted to the type I crystal
Total analogues (%), amount of increase from the initial value [4, 11]: 0.32%
Total analogues (%), initial [4, 11]: 0.06%
Total analogues (%), 10 days [4, 11]: 0.15%
Total analogues (%), 18 days [4, 11]: 0.23%
Total analogues (%), 30 days [4, 11]: 0.38%
Total analogues (%), amount of increase from the initial value [4, 12]: 0.03%
Total analogues (%), initial [4, 12]: 0.06%
Total analogues (%), 10 days [4, 12]: 0.06%
Total analogues (%), 18 days [4, 12]: 0.07%
Total analogues (%), 30 days [4, 12]: 0.09%
Total analogues (%), amount of increase from the initial value [4, 10]: 0.10%
Total analogues (%), initial [4, 10]: 0.06%
Total analogues (%), 10 days [4, 10]: 0.06%
Total analogues (%), 18 days [4, 10]: 0.08%
Total analogues (%), 30 days [4, 10]: 0.16%
Total analogues (%), amount of increase from the initial value [4, 13]: 0.01%
Total analogues (%), initial [4, 13]: 0.06%
Total analogues (%), 30 days ([4]; 60° C.): 0.07%
Increase in the total analogues [4]: not recognized

Cl.N#CC1C(O)[C@@H](CO)O[C@H]1n1ccc(N)nc1=O (stereo partly drawn) [type III crystal, 1-(2′-cyano-2′-deoxy-β-D-arabinofuranosyl)cytosine monohydrochloride]
Change of crystal form on heating [5]: converted to the type I crystal

Reference: patent US8377905B2, “Stable crystal of 1-(2′-cyano-2′-deoxy-β-D-arabinofuranosyl)cytosine monohydrochloride” (Delta-Fly Pharma, Inc., priority 2009, dated 2013)
